Source: US5639783A, “Ketone derivatives” (Mitsubishi Chemical Corporation, priority 1991, dated 1997)
Where two headings read alike, the source gives them in different places.

What was measured:
papain = target: T1, papain (Carica papaya, UniProt P00784); assay: Thiol protease inhibitory activity, papain (P-3125, Sigma); type: biochemical
T1 sequence (P00784 134-345): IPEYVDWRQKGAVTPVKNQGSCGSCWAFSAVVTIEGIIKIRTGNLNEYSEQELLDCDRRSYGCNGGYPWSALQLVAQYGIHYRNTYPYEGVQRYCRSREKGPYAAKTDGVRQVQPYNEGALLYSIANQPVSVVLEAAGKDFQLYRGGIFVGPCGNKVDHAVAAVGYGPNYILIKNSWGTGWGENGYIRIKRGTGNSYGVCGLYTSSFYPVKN
Experimental: (§1) Inhibitory activity against papain (P-3125, Sigma) and cathepsin B (C-6286, Sigma) was assayed according to the method described in a literature [Biochemical Journal, 201, 189 (1982)]. Cathepsin L was purified from rat kidney according to the method in a literature [Journal of Biochemistry, 100, 35 (1986)], and the inhibitory activity against it was assayed in the same manner as described in the above literature for cathepsin B. Furthermore, m-calpain was purified from rat brain according to a known method [Journal of Biological Chemistry, 254, p. 3210 (1984)] and the inhibitory activity against it was assayed by a method described in a literature [Journal of Biological Chemistry, 259, 12489 (1984)]. It is evident from Tables 3 and 4 that the compounds of the present invention have a potent inhibitory activity against thiol proteases such as papain, cathepsin B, cathepsin L or m-calpain.

m-calpain [1] = target: T2, m-calpain (Rattus norvegicus, UniProt Q07009); assay: Confirmation of reversible inhibitory activity (remaining m-calpain activity after incubation with inhibitor); type: biochemical; conditions: incubated 0 to 20 minutes at 10° C.; 10 μM-150 μM inhibitor solution (1 μl); FIGS. 1 to 3
T2 construct: m-calpain was purified from rat brain; from tissue; host or cells: rat brain
T2 sequence (Q07009 20-700 limits assumed): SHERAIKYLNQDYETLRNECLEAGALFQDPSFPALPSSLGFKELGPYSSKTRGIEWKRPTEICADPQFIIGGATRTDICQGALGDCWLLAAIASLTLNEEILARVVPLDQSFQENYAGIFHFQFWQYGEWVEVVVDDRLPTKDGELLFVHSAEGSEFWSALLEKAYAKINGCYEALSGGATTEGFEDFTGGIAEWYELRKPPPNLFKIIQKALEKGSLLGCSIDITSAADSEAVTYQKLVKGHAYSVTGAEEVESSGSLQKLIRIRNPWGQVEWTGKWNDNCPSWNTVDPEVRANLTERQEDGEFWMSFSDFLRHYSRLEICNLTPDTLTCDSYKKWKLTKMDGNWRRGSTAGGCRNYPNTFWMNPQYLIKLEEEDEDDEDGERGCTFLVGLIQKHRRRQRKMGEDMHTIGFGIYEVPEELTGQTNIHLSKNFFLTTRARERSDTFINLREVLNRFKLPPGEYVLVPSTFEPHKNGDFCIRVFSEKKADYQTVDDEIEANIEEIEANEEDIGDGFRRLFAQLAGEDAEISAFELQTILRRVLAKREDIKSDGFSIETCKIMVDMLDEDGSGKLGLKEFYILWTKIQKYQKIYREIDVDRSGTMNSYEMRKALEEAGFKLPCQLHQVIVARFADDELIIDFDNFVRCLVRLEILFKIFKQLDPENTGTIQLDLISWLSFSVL
T2 sequence (Q64537 1-270 partner): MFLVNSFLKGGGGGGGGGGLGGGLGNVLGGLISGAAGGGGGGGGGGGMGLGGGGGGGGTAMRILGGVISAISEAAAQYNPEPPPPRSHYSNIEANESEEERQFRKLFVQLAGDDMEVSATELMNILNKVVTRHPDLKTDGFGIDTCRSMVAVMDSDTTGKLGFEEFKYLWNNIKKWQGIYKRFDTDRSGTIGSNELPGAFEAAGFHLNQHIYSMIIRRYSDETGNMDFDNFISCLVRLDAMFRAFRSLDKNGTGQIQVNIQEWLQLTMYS
Experimental: According to the assay for inhibitory activity against calpain in Experiment 1, reversible inhibitory activity of the present compounds was confirmed as follows.
To an imidazole buffer (54 μl ) were added 500 mM CaCl2 solution (1 μl), 5 mM solution of the synthetic substrate described in the literature (4 μl), 10 μM-150 μM inhibitor solution (1 μl) and m-calpain solution (40 μl), and the mixture was incubated for 0 to 20 minutes at a temperature of 10° C. Then, 100 mM EDTA solution (5 μl) was added to inactivate the enzymatic activity. To the mixture was then added imidazole buffer (900 μl) followed by an addition of 5 mM synthetic substrate solution (40 μl) and 500 mM CaCl2 solution (10 μl), and the decomposition rate of the synthetic substrate was measured for 10 minutes at a temperature of 30° C. to determine the remaining activity of the enzyme.
The compounds of Examples 3, 113 and 190 were used as the inhibitor, and E-64 which is an irreversible inhibitor was also used for comparison.

cathepsin B = target: T3, cathepsin B (Bos taurus, UniProt P07688); assay: Thiol protease inhibitory activity, cathepsin B (C-6286, Sigma); type: biochemical; conditions: Table 3
T3 construct: purchased Sigma C-6286
Experimental: as §1

cathepsin L = target: T4, cathepsin L (Rattus norvegicus, UniProt P07154); assay: Thiol protease inhibitory activity, cathepsin L purified from rat kidney; type: biochemical; conditions: Table 3
T4 construct: Cathepsin L was purified from rat kidney; from tissue; host or cells: rat kidney
Experimental: as §1

m-calpain [2] = target: T2, m-calpain; assay: Thiol protease inhibitory activity, m-calpain purified from rat brain; type: biochemical; conditions: Table 3
Outline: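 Papain and bovine cathepsin B assayed by a published method; cathepsin L purified from rat kidney and assayed in the same manner as cathepsin B. m-Calpain purified from rat brain and assayed by a separate published procedure.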

cataract animal models = conditions: Investigative Ophthalmology & Visual Science, 32, p. 533 (1991); cited from earlier work
[3] = test system: rat which has an enhanced bone destruction by administration of parathyroid hormone; conditions: cited from earlier work
production of IgE = conditions: The Journal of Antibiotics, 42, p. 1362 (1989); cited from earlier work

T4 sequence (P07154 114-334): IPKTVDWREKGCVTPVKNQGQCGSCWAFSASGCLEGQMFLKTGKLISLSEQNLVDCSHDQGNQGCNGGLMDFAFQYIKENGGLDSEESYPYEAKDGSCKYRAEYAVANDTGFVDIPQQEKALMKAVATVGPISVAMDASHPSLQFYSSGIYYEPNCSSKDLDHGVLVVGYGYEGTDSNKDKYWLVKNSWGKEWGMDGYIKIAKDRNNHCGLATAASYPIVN

Compound | IC50 (papain) | remaining enzymatic activity after incubation with inhibitor (reversible inhibition) (m-calpain [1]) | IC50 (cathepsin B) | IC50 (cathepsin L) | IC50 (m-calpain [2]) | IC50 (papain; Table 3, read-out: IC50 papain) | effect on cataract (cataract animal models) | calcium concentration and hydroxyproline concentration in blood [3] | production of IgE (production of IgE)
CCCC[C@H](NC(=O)[C@H](CC(C)C)NC(=O)COc1ccccc1)C(=O)CSCc1ccco1 [3 (No. 82), (s)-1-furfurylthio-3-((s)-4-methyl-2-phenoxyacetylaminovalerylamino)-2-heptanone] | 0.26 µM | activity nearly equal to that of a control remained | 0.71 µM | 0.016 µM | 3.3 µM |  |  |  | 
CC(C)C[C@H](NC(=O)C(C)Oc1ccccc1)C(=O)N[C@@H](Cc1ccccc1)C(=O)CSCc1ccco1 (stereo partly drawn) [165 (No. 349), (s)-1-furfurylthio-3-[(s)-4-methyl-2-(2-phenoxypropionylamino)valerylamino]-4-phenyl-2-butanone] |  |  | 7 µM | 1.9 µM | 13 µM | 9.2 µM |  |  | 
CC(C)C[C@H](NC(=O)COc1ccccc1Cl)C(=O)N[C@@H](Cc1ccccc1)C(=O)CSCc1ccco1 [167 (No. 354), (s)-3-[(s)-2-(2-chlorophenoxyacetylamino)-4-methylvalerylamino]-1-furfurylthio-4-phenyl-2-butanone] |  |  | 30 µM | 1.4 µM | 20 µM | > 100 µM |  |  | 
CC(C)C[C@H](NC(=O)COc1cccc2ccccc12)C(=O)N[C@@H](Cc1ccccc1)C(=O)CSCc1ccco1 [170 (No. 364), (s)-1-furfurylthio-3-[(s)-4-methyl-2-(1-naphtoxyacetylamino)valerylamino]-4-phenyl-2-butanone] |  |  | 6.5 µM | 8.6 µM | 19 µM | 9.2 µM |  |  | 
CC(C)C[C@H](NC(=O)c1cc2ccccc2o1)C(=O)N[C@@H](Cc1ccccc1)C(=O)CSCc1ccco1 [174 (No. 382), (s)-3-[(s)-2-(2-benzofuranylcarbonylamino)-4-methylvalerylamino]-1-furfurylthio-4-phenyl-2-butanone] |  |  | 23 µM | 1.6 µM | 16 µM | 12 µM |  |  | 
CC(C)C[C@H](NC(=O)OCc1ccccc1)C(=O)N[C@@H](Cc1ccccc1)C(=O)CN(C)C [190 (No. 465), (s)-3-((s)-2-benzyloxycarbonylamino-4-methylvalerylamino)-1-dimethylamino-4-phenyl-2-butanone] |  | activity nearly equal to that of a control remained | 1.6 µM | 2.8 µM | 7.3 µM | 40 µM |  |  | 
CC(C)C[C@H](NC(=O)OCc1ccccc1)C(=O)N[C@@H](Cc1ccccc1)C(=O)CN(C)Cc1ccco1 [191 (No. 479), (s)-3-((s)-2-benzyloxycarbonylamino-4-methylvalerylamino)-1-(N-methylfurfurylamino)-4-phenyl-2-butanone] |  |  | 3.5 µM | 9.3 µM | 24 µM | > 100 µM |  |  | 
CC(C)C[C@H](NC(=O)COc1ccccc1)C(=O)N[C@@H](Cc1ccc(Cl)cc1)C(=O)CSCc1ccco1 [197 (No. 511), (s)-4-(4-chlorophenyl)-1-furfurylthio-3-((s)-4-methyl-2-phenoxyacetylaminovalerylamino)-2-butanone] | 13 µM |  | 6 µM | 1.7 µM | 7.8 µM |  |  |  | 
CSCC(=O)[C@H](CCc1ccccc1)NC(=O)[C@H](CC(C)C)NC(=O)OCc1ccccc1 [202 (No. 534), (s)-3-((s)-2-benzyloxycarbonylamino-4-methylvalerylamino)-1-methylthio-5-phenyl-2-pentanone] |  |  | 0.25 µM | 0.39 µM | 13 µM | > 100 µM |  |  | 
CSCC(=O)[C@H](CCc1ccccc1)NC(=O)[C@H](CC(C)C)NC(=O)COc1ccccc1 [203 (No. 536), (s)-3-((s)-4-methyl-2-phenoxyacetylaminovalerylamino)-1-methylthio-5-phenyl-2-pentanone] | 4.4 µM |  | 0.34 µM | 0.38 µM | 9.1 µM |  |  |  | 
CC(C)C[C@H](NC(=O)COc1ccccc1)C(=O)N[C@@H](CCc1ccccc1)C(=O)CSCc1ccco1 [206 (No. 543), (s)-1-furfurylthio-3-((s)-4-methyl-2-phenoxyacetylaminovalerylamino)-5-phenyl-2-pentanone] | 6 µM |  | 0.82 µM | 0.62 µM | 15 µM |  |  |  | 
CC(C)C[C@H](NC(=O)COc1ccccc1)C(=O)NC(Cc1cccc2ccccc12)C(=O)CSCc1ccco1 (stereo partly drawn) [209 (No. 555), l-furfurylthio-3-((s)-4-methyl-2-phenoxyacetylaminovalerylamino)-4-(1-naphtyl)-2-butanone] |  |  | 6.5 µM | 1.5 µM | 19 µM | 9 µM |  |  | 
CC(C)C[C@H](NC(=O)OCc1ccccc1)C(=O)N[C@@H](CCC(=O)O)C(=O)CSCc1ccco1 [217 (No. 600), (s)-4-((s)-2-benzyloxycarbonylamino-4-methylvalerylamino)-6-furfurylthio-5-oxohexanoic Acid] |  |  | 2.5 µM | 11 µM | 19 µM | 26 µM |  |  | 
CC(C)C[C@H](NC(=O)[C@H]1O[C@@H]1C(=O)O)C(=O)NCCCCNC(=N)N [E-64] |  | enzymatic activity rapidly disappeared in proportion to the incubation period |  |  |  |  | effective on cataract in animal models | decrease of calcium concentration and hydroxyproline concentration in blood | 
NC(N)=NCCCCNC(=O)[C@H](Cc1ccccc1)NC(=O)[C@H]1O[C@@H]1C(=O)O [Estatin A] |  |  |  |  |  |  |  | decrease of calcium concentration and hydroxyproline concentration in blood | specifically inhibit the production of IgE without affecting on the production of IgG
CSCC(=O)[C@H](Cc1ccccc1)NC(=O)[C@H](CC(C)C)NC(=O)OCc1ccccc1 [Example 113, (s)-3-((s)-2-benzyloxycarbonylamino-4-methylvalerylamino)-1-methylthio-4-phenyl-2-butanone] |  | activity nearly equal to that of a control remained |  |  |  |  |  |  | 
